Counter-ions that a name gives are not always drawn. Like-named read-outs stand apart in the source and are kept apart here.
What was measured:
Type in all cases: biochemical
[1] = biological target: T1, recombinant PRL-3 (Homo sapiens, UniProt O75365); assay: In vitro phosphatase assay (DiFMUP hydrolysis), PRL-3; also: test concentration or dose not given here
T1 construct: 6xHis (N, cleaved yes); made in house; host or cells: E. coli One Shot BL21 Star

[2] = biological target: T2, recombinant PRL-2 (Homo sapiens, UniProt Q12974); assay: In vitro phosphatase assay (DiFMUP hydrolysis), PRL-2;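 also: PRL-2 activity read as DiFMUP hydrolysis after 20 min at room temperature with drug, enzyme first pre-reduced at 4 °C for 20 min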
T2 construct: 6xHis (N, cleaved yes); made in house; host or cells: E. coli One Shot BL21 Star
T2 sequence (Q12974 1-167): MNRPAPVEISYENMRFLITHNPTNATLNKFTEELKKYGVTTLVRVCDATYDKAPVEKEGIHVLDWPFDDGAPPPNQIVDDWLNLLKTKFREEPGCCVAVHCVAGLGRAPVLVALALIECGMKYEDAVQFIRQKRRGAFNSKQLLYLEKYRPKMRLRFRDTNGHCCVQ

[3] = biological target: T3, recombinant PRL-1 (Homo sapiens, UniProt Q93096); assay: In vitro phosphatase assay (DiFMUP hydrolysis), PRL-1; also: test concentration or dose not given here
T3 construct: 6xHis (N, cleaved yes); made in house; host or cells: E. coli One Shot BL21 Star
T3 sequence (Q93096 1-173): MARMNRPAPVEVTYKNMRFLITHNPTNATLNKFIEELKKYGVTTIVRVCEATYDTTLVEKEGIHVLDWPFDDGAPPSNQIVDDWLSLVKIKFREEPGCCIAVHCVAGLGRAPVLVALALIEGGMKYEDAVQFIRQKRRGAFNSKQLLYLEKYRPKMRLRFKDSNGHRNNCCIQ

[4] = FDA-approved drug screen, activity compared to DMSO

T1 sequence (O75365 whole entry): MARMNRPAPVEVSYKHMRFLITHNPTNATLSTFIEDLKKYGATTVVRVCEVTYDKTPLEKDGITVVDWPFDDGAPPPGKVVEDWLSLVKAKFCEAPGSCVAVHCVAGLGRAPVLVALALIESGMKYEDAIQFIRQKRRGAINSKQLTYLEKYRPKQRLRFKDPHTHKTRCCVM

Compound	% Phosphatase Activity (compared to DMSO) PRL-3 [1, 4] [%]	% Phosphatase Activity (compared to DMSO) PRL-2 [2, 4] [%]	% Phosphatase Activity (compared to DMSO) PRL-1 [3, 4] [%]	% Phosphatase Activity (compared to DMSO) PRL-3 [1] [%]	% Phosphatase Activity (compared to DMSO) PRL-2 [2] [%]	% Phosphatase Activity (compared to DMSO) PRL-1 [3] [%]
N[C@@H](CC(=O)N1CCn2c(nnc2C(F)(F)F)C1)Cc1cc(F)c(F)cc1F [Sitagliptin phosphate monohydrate]	89	120	117	–	–	–
CC(C)(C)C(=O)Oc1ccc(S(=O)(=O)Nc2ccccc2C(=O)NCC(=O)O)cc1 [Sivelestat sodium]	75	86	89	–	–	–
Nc1ccc(C(=O)[O-])c(O)c1.[Na+] [Sodium 4-Aminosalicylate]	69	119	90	–	–	–
Nc1ccc(C(=O)NCC(=O)[O-])cc1.O.[Na+] [Sodium 4-aminohippurate Hydrate]	84	87	84	–	–	–
O=N[O-].[Na+] [Sodium Nitrite]	–	–	–	75	116	94
O=C(O)CCCc1ccccc1 [Sodium Phenylbutyrate]	82	110	103	–	–	–
O=S(=O)(O)Oc1ccc(C(c2ccc(OS(=O)(=O)O)cc2)c2ccccn2)cc1 [Sodium Picosulfate]	81	110	115	–	–	–
O=C1O[C@H]([C@@H](O)CO)C([O-])=C1O.[Na+] [Sodium ascorbate]	113	71	85	–	–	–
CCCC(=O)[O-].[Na+] [Sodium butyrate]	89	90	97	–	–	–
O=C([O-])c1ccccc1O.[Na+] [Sodium salicylate]	–	–	–	95	103	130
CC(C)OC(=O)[C@H](C)N[P@](=O)(OC[C@H]1O[C@@H](n2ccc(=O)[nH]c2=O)[C@](C)(F)[C@@H]1O)Oc1ccccc1 [Sofosbuvir (PSI-7977, GS-7977)]	89	96	87	–	–	–
O=C(O[C@H]1CN2CCC1CC2)N1CCc2ccccc2[C@@H]1c1ccccc1 [Solifenacin succinate]	114	99	88	–	–	–
CNC(=O)c1cc(Oc2ccc(NC(=O)Nc3ccc(Cl)c(C(F)(F)F)c3)cc2)ccn1 [Sorafenib Tosylate]	73	93	85	–	–	–
CNC(=O)c1cc(Oc2ccc(NC(=O)Nc3ccc(Cl)c(C(F)(F)F)c3)cc2)ccn1 [Sorafenib]	95	80	91	–	–	–
OC[C@@H](O)[C@@H](O)[C@H](O)[C@@H](O)CO [Sorbitol]	80	96	105	–	–	–
CCOc1ccc(Cc2cc([C@@H]3O[C@H](SC)[C@@H](O)[C@H](O)[C@H]3O)ccc2Cl)cc1 [Sotagliflozin (LX4211)]	85	88	100	–	–	–
CC(C)NCC(O)c1ccc(NS(C)(=O)=O)cc1 (stereo not drawn) [Sotalol]	78	97	98	–	–	–

Compound	% Phosphatase Activity (compared to DMSO) PRL-3 [1, 4] [%]	% Phosphatase Activity (compared to DMSO) PRL-2 [2, 4] [%]	% Phosphatase Activity (compared to DMSO) PRL-1 [3, 4] [%]	% Phosphatase Activity (compared to DMSO) PRL-3 [1] [%]	% Phosphatase Activity (compared to DMSO) PRL-2 [2] [%]	% Phosphatase Activity (compared to DMSO) PRL-1 [3] [%]
CN1CCN(c2nc(C3=C(c4c[nH]c5ccccc45)C(=O)NC3=O)c3ccccc3n2)CC1 [Sotrastaurin]	85	89	83	–	–	–
C[C@@H]1CN(c2c(F)c(N)c3c(=O)c(C(=O)O)cn(C4CC4)c3c2F)C[C@H](C)N1 [Sparfloxacin]	121	98	87	–	–	–
CN[C@@H]1[C@H](O)[C@H](NC)[C@H]2O[C@@]3(O)C(=O)C[C@@H](C)O[C@H]3O[C@@H]2[C@H]1O.Cl.Cl [Spectinomycin HCl]	77	110	109	–	–	–
CC(=O)S[C@@H]1CC2=CC(=O)CC[C@]2(C)[C@H]2CC[C@@]3(C)[C@@H](CC[C@@]34CCC(=O)O4)[C@H]12 [Spironolactone]	68	87	84	–	–	–
C[C@]12Cc3c[nH]nc3C[C@@H]1CC[C@@H]1[C@@H]2CC[C@@]2(C)[C@H]1CC[C@]2(C)O [Stanozolol]	–	–	–	93	84	89
Cc1cn([C@H]2C=C[C@@H](CO)O2)c(=O)[nH]c1=O [Stavudine (d4T)]	88	90	104	–	–	–
[H]/N=C(/N)N[C@H]1[C@H](O)[C@@H](O)[C@H](O[C@@H]2O[C@@H](C)[C@](O)(C=O)[C@H]2O[C@@H]2O[C@@H](CO)[C@H](O)[C@@H](O)[C@@H]2NC)[C@@H](N/C(N)=N\[H])[C@@H]1O [Streptomycin sulfate]	85	89	105	–	–	–
O=C(O)CCC(=O)Nc1ccc(S(=O)(=O)Nc2nccs2)cc1 [Succinylsulfathiazole]	85	97	85	–	–	–
CC1(C)[C@H](C(=O)O)N2C(=O)C[C@H]2S1(=O)=O [Sulbactam sodium]	89	112	111	–	–	–
CC1(C)[C@H](C(=O)O)N2C(=O)C[C@H]2S1(=O)=O [Sulbactam]	81	91	95	–	–	–
Nc1ccc(S(=O)(=O)NC(=O)c2ccccc2)cc1 [Sulfabenzamide]	83	121	93	–	–	–
CC(=O)NS(=O)(=O)c1ccc(N)cc1 [Sulfacetamide Sodium]	74	109	91	–	–	–
COc1ncnc(NS(=O)(=O)c2ccc(N)cc2)c1OC [Sulfadoxine]	76	106	110	–	–	–
[H]/N=C(/N)NS(=O)(=O)c1ccc(N)cc1 [Sulfaguanidine]	77	90	97	–	–	–
COc1cnc(NS(=O)(=O)c2ccc(N)cc2)nc1 [Sulfameter]	91	109	106	–	–	–
Cc1cc(C)nc(NS(=O)(=O)c2ccc(N)cc2)n1 [Sulfamethazine]	82	105	108	–	–	–
Cc1nnc(NS(=O)(=O)c2ccc(N)cc2)s1 [Sulfamethizole]	92	99	88	–	–	–
